# Measurements published in US10130693B2, “Peptides, combination of peptides and scaffolds for use in immunotherapeutic treatment of various cancers” (Immatics Biotechnologies GmbH, priority 2015, dated 2018).
# Tested on: HLA-A*24
# Test: MHC binding assay, UV-ligand exchange with beta2m ELISA (exchange yield), HLA-A*24
# Set-up: species or system human
# Details: binding to HLA-A*24, UV-ligand exchange
# From the text: Candidate peptides for T cell based therapies according to the present invention were further tested for their MHC binding capacity (affinity). The individual peptide-MHC complexes were produced by UV-ligand exchange, where a UV-sensitive peptide is cleaved upon UV-irradiation, and exchanged with the peptide of interest as analyzed. Only peptide candidates that can effectively bind and stabilize the peptide-receptive MHC molecules prevent dissociation of the MHC complexes. To determine the yield of the exchange reaction, an ELISA was performed based on the detection of the light chain (β2m) of stabilized MHC complexes. The assay was performed as generally described in Rodenko et al. (Rodenko et al., 2006).
# 96 well MAXISorp plates (NUNC) were coated over night with 2 ug/ml streptavidin in PBS at room temperature, washed 4× and blocked for 1 h at 37° C. in 2% BSA containing blocking buffer. […] Peptide-MHC monomers of the UV-exchange reaction were diluted 100 fold in blocking buffer. Samples were incubated for 1 h at 37° C., washed four times, incubated with 2 ug/ml HRP conjugated anti-β2m for 1h at 37° C., washed again and detected with TMB solution that is stopped with […]. Absorption was measured at 450 nm. Candidate peptides that show a high exchange yield (preferably higher than 50%, most preferred higher than 75%) are generally preferred for a generation and production of antibodies or fragments thereof, and/or T cell receptors or fragments thereof, as they show sufficient avidity to the MHC molecules and prevent dissociation of the MHC complexes.
row,Substance,"Peptide exchange (MHC class I binding score, peptide exchange yield)"
1,212 (SYAPPSEDLF; listed as Homo sapiens) [compound 212],++ (20%-49% = ++)
2,123 (VYTPVLEHL; listed as Homo sapiens) [compound 123],++ (20%-49% = ++)
3,129 (KYIDYLMTW; listed as Homo sapiens) [compound 129],++++ (>=75% = ++++)
4,173 (QYLEKYYNL; listed as Homo sapiens) [compound 173],++++ (>=75% = ++++)
5,241 (SYVKVLHHL; listed as Homo sapiens) [compound 241],+++ (50%-75% = +++)
6,233 (QYLTAAALHNL; listed as Homo sapiens) [compound 233],+++ (50%-75% = +++)
7,234 (SYLPAIWLL; listed as Homo sapiens) [compound 234],+++ (50%-75% = +++)
8,249 (RYHPTTCTI; listed as Homo sapiens) [compound 249],++++ (>=75% = ++++)
9,148 (SYGTVSQIF; listed as Homo sapiens) [compound 148],++++ (>=75% = ++++)
10,209 (AFIETPIPLF; listed as Homo sapiens) [compound 209],++++ (>=75% = ++++)
11,159 (IYEETRGVL; listed as Homo sapiens) [compound 159],+++ (50%-75% = +++)
12,243 (SYLELANTL; listed as Homo sapiens) [compound 243],+++ (50%-75% = +++)
13,191 (TYPDGTYTGRIF; listed as Homo sapiens) [compound 191],+++ (50%-75% = +++)
14,265 (SYLNEAFSF; listed as Homo sapiens) [compound 265],++++ (>=75% = ++++)
15,221 (KYIGNLDLL; listed as Homo sapiens) [compound 221],++++ (>=75% = ++++)
16,121 (RYGLPAAWSTF; listed as Homo sapiens) [compound 121],+++ (50%-75% = +++)
17,100 (VYIESRIGTSTSF; listed as Homo sapiens) [compound 100],+++ (50%-75% = +++)
18,253 (IYGFFNENF; listed as Homo sapiens) [compound 253],+++ (50%-75% = +++)
19,229 (IYQFVADSF; listed as Homo sapiens) [compound 229],+++ (50%-75% = +++)

row,Substance,"Peptide exchange (MHC class I binding score, peptide exchange yield)"
1,231 (AFADVSVKF; listed as Homo sapiens) [compound 231],++++ (>=75% = ++++)
2,131 (EYLDRIGQLFF; listed as Homo sapiens) [compound 131],+++ (50%-75% = +++)
3,199 (SYLNHLNNL; listed as Homo sapiens) [compound 199],+++ (50%-75% = +++)
4,127 (QYFTGNPLF; listed as Homo sapiens) [compound 127],+++ (50%-75% = +++)
5,138 (VYNAVSTSF; listed as Homo sapiens) [compound 138],++ (20%-49% = ++)
6,228 (IYQYVADNF; listed as Homo sapiens) [compound 228],+++ (50%-75% = +++)
7,244 (VHFEDTGKTLLF; listed as Homo sapiens) [compound 244],+++ (50%-75% = +++)
8,195 (AYIKGGWIL; listed as Homo sapiens) [compound 195],+++ (50%-75% = +++)
9,117 (IYLSDLTYI; listed as Homo sapiens) [compound 117],+++ (50%-75% = +++)
10,258 (AYAQLGYLL; listed as Homo sapiens) [compound 258],+++ (50%-75% = +++)
11,124 (TYKDYVDLF; listed as Homo sapiens) [compound 124],+ (<20% = +)
12,259 (YFIKSPPSQLF; listed as Homo sapiens) [compound 259],++ (20%-49% = ++)
13,197 (IFTDIFHYL; listed as Homo sapiens) [compound 197],++++ (>=75% = ++++)
14,242 (VYGEPRELL; listed as Homo sapiens) [compound 242],+++ (50%-75% = +++)
15,245 (LYPQLFVVL; listed as Homo sapiens) [compound 245],+++ (50%-75% = +++)
16,202 (RYVEGIVSL; listed as Homo sapiens) [compound 202],+++ (50%-75% = +++)
17,220 (SYSEIKDFL; listed as Homo sapiens) [compound 220],++++ (>=75% = ++++)
18,143 (KYIFQLNEI; listed as Homo sapiens) [compound 143],+++ (50%-75% = +++)
19,261 (GYIKLINFI; listed as Homo sapiens) [compound 261],++++ (>=75% = ++++)

# Other lines, results leading:
row,"Peptide exchange (MHC class I binding score, peptide exchange yield)",Substance
1,+++ (50%-75% = +++),372 (VYVIEPHSMEF; listed as Homo sapiens) [compound 372]
2,++++ (>=75% = ++++),275 (KYGTLDVTF; listed as Homo sapiens) [compound 275]
3,++++ (>=75% = ++++),305 (NYENKQYLF; listed as Homo sapiens) [compound 305]
4,+++ (50%-75% = +++),273 (IYGEKLQFIF; listed as Homo sapiens) [compound 273]
5,+++ (50%-75% = +++),382 (AYLPPLQQVF; listed as Homo sapiens) [compound 382]
6,+++ (50%-75% = +++),348 (IYLEHTESI; listed as Homo sapiens) [compound 348]
7,+++ (50%-75% = +++),284 (DYLKDPVTI; listed as Homo sapiens) [compound 284]
8,+++ (50%-75% = +++),291 (YYLGSGRETF; listed as Homo sapiens) [compound 291]
9,+++ (50%-75% = +++),283 (EYQEIFQQL; listed as Homo sapiens) [compound 283]
10,++++ (>=75% = ++++),274 (KQLDIANYELF; listed as Homo sapiens) [compound 274]
11,++ (20%-49% = ++),268 (IFITKALQI; listed as Homo sapiens) [compound 268]
12,+++ (50%-75% = +++),295 (SYLVIHERI; listed as Homo sapiens) [compound 295]
13,+++ (50%-75% = +++),308 (TFDGHGVFF; listed as Homo sapiens) [compound 308]
14,++ (20%-49% = ++),362 (VYNYAEQTL; listed as Homo sapiens) [compound 362]
15,+++ (50%-75% = +++),347 (VYAEVNSL; listed as Homo sapiens) [compound 347]
16,++++ (>=75% = ++++),271 (RFLMKSYSF; listed as Homo sapiens) [compound 271]
17,+++ (50%-75% = +++),315 (FYIPHVPVSF; listed as Homo sapiens) [compound 315]
18,+++ (50%-75% = +++),377 (QYTPHSHQF; listed as Homo sapiens) [compound 377]
19,+++ (50%-75% = +++),343 (NYLGGTSTI; listed as Homo sapiens) [compound 343]
20,+++ (50%-75% = +++),368 (KYQNVKHNL; listed as Homo sapiens) [compound 368]
21,+++ (50%-75% = +++),304 (EYNEVANLF; listed as Homo sapiens) [compound 304]
22,++++ (>=75% = ++++),286 (SYGTILSHI; listed as Homo sapiens) [compound 286]
23,++ (20%-49% = ++),267 (SFLNIEKTEILF; listed as Homo sapiens) [compound 267]
24,++++ (>=75% = ++++),379 (VFIAQGYTL; listed as Homo sapiens) [compound 379]
